molecular target: rat brain cortical membranes ([35S]-TBPS binding, GABA receptor complex); assay: Steroid inhibition of [35S]-TBPS binding; details: 3 nM [35S]-TBPS, in the presence of 5 mM GABA
Protocol: [^35S]-t-Butylbicyclophosphorothionate (TBPS) binding assays using rat brain cortical membranes in the presence of 5 mM GABA has been described (Gee et al, J. Pharmacol. Exp. Ther. 1987, 241, 346-353; Hawkinson et al, Mol. Pharmacol. 1994, 46, 977-985; Lewin, A. H et al., Mol. Pharmacol. 1989, 35, 189-194).
Briefly, cortices are rapidly removed following decapitation of carbon dioxide-anesthetized Sprague-Dawley rats (200-250 g). The cortices are homogenized in 10 volumes of ice-cold 0.32 M sucrose using a glass/teflon homogenizer and centrifuged at 1500×g for 10 min at 4° C. The resultant supernatants are centrifuged at 10,000×g for 20 min at 4° C. to obtain the P2 pellets. The P2 pellets are resuspended in 200 mM NaCl/50 mM Na—K phosphate pH 7.4 buffer and centrifuged at 10,000×g for 10 min at 4° C. This washing procedure is repeated twice and the pellets are resuspended in 10 volumes of buffer. Aliquots ([…]) of the membrane suspensions are incubated with 3 nM [^35S]-TBPS and […] aliquots of test drug dissolved in dimethyl sulfoxide (DMSO) (final 0.5%) in the presence of 5 mM GABA. The incubation is brought to a final volume of 1.0 mL with buffer. Nonspecific binding is determined in the presence of […] and ranged from 15 to 25%. Following a 90 min incubation at room temp, the assays are terminated by filtration through glass fiber filters (Schleicher and Schuell No. 32) using a cell harvester (Brandel) and rinsed three times with ice-cold buffer. Filter bound radioactivity is measured by liquid scintillation spectrometry. Non-linear curve fitting of the overall data for each drug averaged for each concentration is done using Prism (GraphPad). […] The concentration of test compound producing 50% inhibition (IC50) of specific binding and the maximal extent of inhibition (Imax) are determined for the individual experiments with the same model used for the overall data and then the means±SEM.s of the individual experiments are calculated.
Various compounds are or can be screened to determine their potential as modulators of [^35S]-TBPS binding in vitro. These assays are or can be performed in accordance with the above.

SMILES | IC50
C[C@@]1(O)CC[C@]2(C)C3=CC[C@]4(C)[C@@H](C(=O)Cn5cc(C#N)cn5)CC[C@H]4[C@@H]3CC[C@@H]2C1 [Example 9, 1-(2-((3R,5R,8S,10S,13S,14S,17S)-3-hydroxy-3,10,13-trimethyl-2,3,4,5,6,7,8,10,12,13,14,15,16,17-tetradecahydro-1H-cyclopenta[a]phenanthren-17-yl)-2-oxoethyl)-1H-pyrazole-4-carbonitrile] | 10 to 100 nM
C[C@@]1(O)CC[C@]2(C)C3=CC[C@]4(C)[C@@H](C(=O)Cn5nccn5)CC[C@H]4[C@@H]3CC[C@H]2C1 [Example 7, 1-((3R,5S,8S,10S,13S,14S,17S)-3-hydroxy-3,10,13-trimethyl-2,3,4,5,6,7,8,10,12,13,14,15,16,17-tetradecahydro-1H-cyclopenta[a]phenanthren-17-yl)-2-(2H-1,2,3-triazol-2-yl)ethan-1-one] | 100 to 1000 nM
Cc1nnn(CC(=O)[C@H]2CC[C@H]3[C@@H]4CC[C@H]5C[C@](C)(O)CC[C@]5(C)C4=CC[C@]23C)n1 [Example 4, 1-((3R,5S,8S,10S,13S,14S,17S)-3-hydroxy-3,10,13-trimethyl-2,3,4,5,6,7,8,10,12,13,14,15,16,17-tetradecahydro-1H-cyclopenta[a]phenanthren-17-yl)-2-(5-methyl-2H-tetrazol-2-yl)ethan-1-one] | 100 to 1000 nM
C[C@@]1(O)CC[C@]2(C)C3=CC[C@]4(C)[C@@H](C(=O)Cn5cc(C#N)cn5)CC[C@H]4[C@@H]3CC[C@H]2C1 [Example 2, 1-(2-((3R,5S,8S,10S,13S,14S,17S)-3-hydroxy-3,10,13-trimethyl-2,3,4,5,6,7,8,10,12,13,14,15,16,17-tetradecahydro-1H-cyclopenta[a]phenanthren-17-yl)-2-oxoethyl)-1H-pyrazole-4-carbonitrile] | 10 to 100 nM
C[C@@]1(O)CC[C@]2(C)C3=CC[C@]4(C)[C@@H](C(=O)Cn5nccn5)CC[C@H]4[C@@H]3CC[C@@H]2C1 [Example 13, 1-((3R,5R,8S,10S,13S,14S,17S)-3-hydroxy-3,10,13-trimethyl-2,3,4,5,6,7,8,10,12,13,14,15,16,17-tetradecahydro-1H-cyclopenta[a]phenanthren-17-yl)-2-(2H-1,2,3-triazol-2-yl)ethan-1-one] | 10 to 100 nM
COC[C@@]1(O)CC[C@]2(C)C3=CC[C@]4(C)[C@@H](C(C)=O)CC[C@H]4[C@@H]3CC[C@@H]2C1 [Example 16, 1-((3R,5R,8S,10S,13S,14S,17S)-3-hydroxy-3-(methoxymethyl)-10,13-dimethyl-2,3,4,5,6,7,8,10,12,13,14,15,16,17-tetradecahydro-1H-cyclopenta[a]phenanthren-17-yl)ethan-1-one] | 100 to 1000 nM
CCOC[C@@]1(O)CC[C@]2(C)C3=CC[C@]4(C)[C@@H](C(C)=O)CC[C@H]4[C@@H]3CC[C@H]2C1 [Example 14, 1-((3R,5S,8S,10S,13S,14S,17S)-3-(ethoxymethyl)-3-hydroxy-10,13-dimethyl-2,3,4,5,6,7,8,10,12,13,14,15,16,17-tetradecahydro-1H-cyclopenta[a]phenanthren-17-yl)ethan-1-one] | 1000 to 10000 nM
CC(=O)[C@H]1CC[C@H]2[C@@H]3CC[C@H]4C[C@](C)(O)CC[C@]4(C)C3=CC[C@]12C [Example 1, 1-((3R,5S,8S,10S,13S,14S,17S)-3-hydroxy-3,10,13-trimethyl-2,3,4,5,6,7,8,10,12,13,14,15,16,17-tetradecahydro-1H-cyclopenta[a]phenanthren-17-yl)ethan-1-one] | 100 to 1000 nM
Cc1nnn(CC(=O)[C@H]2CC[C@H]3[C@@H]4CC[C@@H]5C[C@](C)(O)CC[C@]5(C)C4=CC[C@]23C)n1 [Example 10, 1-((3R,5R,8S,10S,13S,14S,17S)-3-hydroxy-3,10,13-trimethyl-2,3,4,5,6,7,8,10,12,13,14,15,16,17-tetradecahydro-1H-cyclopenta[a]phenanthren-17-yl)-2-(5-methyl-2H-tetrazol-2-yl)ethan-1-one] | 10 to 100 nM
C[C@@]1(O)CC[C@]2(C)C3=CC[C@]4(C)[C@@H](C(=O)Cn5ccnn5)CC[C@H]4[C@@H]3CC[C@H]2C1 [Example 6, 1-((3R,5S,8S,10S,13S,14S,17S)-3-hydroxy-3,10,13-trimethyl-2,3,4,5,6,7,8,10,12,13,14,15,16,17-tetradecahydro-1H-cyclopenta[a]phenanthren-17-yl)-2-(1H-1,2,3-triazol-1-yl)ethan-1-one] | 100 to 1000 nM
Cc1nnnn1CC(=O)[C@H]1CC[C@H]2[C@@H]3CC[C@@H]4C[C@](C)(O)CC[C@]4(C)C3=CC[C@]12C [Example 11, 1-((3R,5R,8S,10S,13S,14S,17S)-3-hydroxy-3,10,13-trimethyl-2,3,4,5,6,7,8,10,12,13,14,15,16,17-tetradecahydro-1H-cyclopenta[a]phenanthren-17-yl)-2-(5-methyl-1H-tetrazol-1-yl)ethan-1-one] | 100 to 1000 nM
COC[C@@]1(O)CC[C@]2(C)C3=CC[C@]4(C)[C@@H](C(=O)Cn5cc(C#N)cn5)CC[C@H]4[C@@H]3CC[C@@H]2C1 [Example 17, 1-(2-((3R,5R,8S,10S,13S,14S,17S)-3-hydroxy-3-(methoxymethyl)-10,13-dimethyl-2,3,4,5,6,7,8,10,12,13,14,15,16,17-tetradecahydro-1H-cyclopenta[a]phenanthren-17-yl)-2-oxoethyl)-1H-pyrazole-4-carbonitrile] | 10 to 100 nM
C[C@@]1(O)CC[C@]2(C)C3=CC[C@]4(C)[C@H](C(=O)Cn5cc(C#N)cn5)CC[C@H]4[C@@H]3CC[C@H]2C1 [Example 3, 1-(2-((3R,5S,8S,10S,13S,14S,17R)-3-hydroxy-3,10,13-trimethyl-2,3,4,5,6,7,8,10,12,13,14,15,16,17-tetradecahydro-1H-cyclopenta[a]phenanthren-17-yl)-2-oxoethyl)-1H-pyrazole-4-carbonitrile] | 1000 to 10000 nM
CC(=O)[C@H]1CC[C@H]2[C@@H]3CC[C@@H]4C[C@](C)(O)CC[C@]4(C)C3=CC[C@]12C [Example 8, 1-((3R,5R,8S,10S,13S,14S,17S)-3-hydroxy-3,10,13-trimethyl-2,3,4,5,6,7,8,10,12,13,14,15,16,17-tetradecahydro-1H-cyclopenta[a]phenanthren-17-yl)ethan-1-one] | 10 to 100 nM
Cc1nnnn1CC(=O)[C@H]1CC[C@H]2[C@@H]3CC[C@H]4C[C@](C)(O)CC[C@]4(C)C3=CC[C@]12C [Example 5, 1-((3R,5S,8S,10S,13S,14S,17S)-3-hydroxy-3,10,13-trimethyl-2,3,4,5,6,7,8,10,12,13,14,15,16,17-tetradecahydro-1H-cyclopenta[a]phenanthren-17-yl)-2-(5-methyl-1H-tetrazol-1-yl)ethan-1-one] | 100 to 1000 nM
CCOC[C@@]1(O)CC[C@]2(C)C3=CC[C@]4(C)[C@@H](C(C)=O)CC[C@H]4[C@@H]3CC[C@@H]2C1 [Example 15, 1-((3R,5R,8S,10S,13S,14S,17S)-3-(ethoxymethyl)-3-hydroxy-10,13-dimethyl-2,3,4,5,6,7,8,10,12,13,14,15,16,17-tetradecahydro-1H-cyclopenta[a]phenanthren-17-yl)ethan-1-one] | 100 to 1000 nM
C[C@@]1(O)CC[C@]2(C)C3=CC[C@]4(C)[C@@H](C(=O)Cn5ccnn5)CC[C@H]4[C@@H]3CC[C@@H]2C1 [Example 12, 1-((3R,5R,8S,10S,13S,14S,17S)-3-hydroxy-3,10,13-trimethyl-2,3,4,5,6,7,8,10,12,13,14,15,16,17-tetradecahydro-1H-cyclopenta[a]phenanthren-17-yl)-2-(1H-1,2,3-triazol-1-yl)ethan-1-one] | 100 to 1000 nM
